Assay results taken from patent publication US20220242905A1, “MODIFIED PEPTIDES AND THEIR USE” (UNIVERSITE DE MONTPELLIER, priority 2018, published 2022).
Converted amounts (≈) assume the structure as drawn.

Assays:
[1] = Hemolytic activity; format: cell-based, Human; conditions: human, human red blood cell suspension; hRBCs, 1 h at 37° C.; read-out: HD50, dose required to lyse 50% of the red blood cells
Method: Procedure for measurements of hemolytic activity: Human red blood cells (hRBCs) were washed multiple times with phosphate-buffered saline (PBS) until a clear supernatant was obtained. The hRBCs suspension was made in PBS with a Packed Cell Volume of 5%, Two-fold serial dilutions (50 μL) of oligomers in sterile water (pH adjusted between 7.4 and 7.7 with HCl and NaOH solutions) were mixed with hRBCs suspension (50 μL) in clear polystyrene optical-bottom 96-well plates which were filmed and incubated for 1 h at 37° C. A 1/1 vv hRBCs solution/PBS mixture was used a negative control and a 1/1 vv hRBCs solution/1% (TRIS 50 mM pH=8.0+1% SDS) mixture was used a positive control for 100% hemolysis. The mixture was then centrifuged at 1500 g for 10 min at 5° C. Next, 50 μL of the supernatant was transferred into a second plate, and the absorbance was read at 490 nm using a BioRad iMark plate reader. The hemolysis percentage was calculated by the formula % hemolysis=[Absorbance (sample)−Absorbance (negative control)]/[Absorbance (positive control)−Absorbance (negative control)]×100%. Each assay was performed in a double duplicate. Hemolytic activity was determined or estimated with the Hemolytic Concentration leading to 50% of lysis of hRBCs (HC50).

[2] = test system: Enterococcus faecalis ATCC29121; format: cell-based; conditions: for Minimal inhibitory concentration (MIC) E. faecalis ATCC29121: ATCC29121, 24 h; for Minimal bactericidal concentration (MBC) E. faecalis ATCC29121: value in bracket, 24 h at 37° C.
Method: (§1) Minimal inhibitory concentration (MIC) values and minimal bactericidal concentration (MBCs) values for ATC-peptides 1-9 were determined against both Gram-positive (Bacillus subtilis, Staphylococcus aureus, Enterococcus faecalis) and Gram negative (Escherichia coli, Pseudomonas aeruginosa) bacteria as well as a yeast (Candida albicans). Experiments were conducted in triplicate. For B. subtilis, compounds were tested against vegetative cells and spores, which are particularly resistant to the action of antimicrobial agents. MIC and MBCs values are shown Table 12. In addition, haemolytic properties of 1-9 were tested.
(§2) the antimicrobial performances of oligomers antimicrobial activity were determined on three Gram positive strains (Bacillus subtilis ATCC6633, Staphylococcus aureus ATCC6538 and Enterococcus faecalis ATCC29121), two Gram negative strains (Escherichia coli ATCC8739 and Pseudomonas aeruginosa ATCC9027) and one fungal strain (Candida albicans ATCC10231). Each bacterial strain was allowed to grow overnight on Trypto-Caseine-Soja agar (TSA, Difco) at 37° C., C. albicans was allowed to grow 48 h on a sabouraud medium (Difco) at 20-25° C. A fresh suspension at 10^8 CFU·mL^−1 was then prepared by inoculating the micro-organisms in a Tryptone-Sel solution. Concentration was monitored by measuring transmitted light at 620 nm or with the Mac Farland turbidity standard (Mac Farland=0.5≈10^8 CFU·mL^−1). Each suspension was then diluted in a doubly strong Mueller-Hinton (MH, Difco) broth to […]. Two-fold serial dilutions (100 μL) of oligomers in sterile water (pH adjusted between 7.4 and 7.7 with HCl and NaOH solutions) were mixed with microbial inoculum (100 μL) in NUNC sterile clear polystyrene flat-bottom 96-well plates. A 1/1 v/v oligomer solution/water mixture was used a negative control and a 1/1 vv water/microbial inoculum mixture was used a positive control. Plates were then incubated 24 h at 37° C. for bacteria and 48 h at 25° C. for C. albicans. Minimum Inhibitory Concentration (MIC) was determined as the lowest concentration inhibiting the growth of each micro-organism. […] Minimum Bactericidal Concentration (MBC) was determined as the lowest concentration that prevent the growth of more than one colony. Each assay was performed in a triple duplicate for each strain.

[3] = test system: Escherichia coli ATCC8739; format: cell-based; conditions: for Minimal inhibitory concentration (MIC) E. coli ATCC8739: ATCC8739, 24 h; for Minimal bactericidal concentration (MBC) E. coli ATCC8739: value in bracket, 24 h at 37° C.
Method: as §1, §2

[4] = test system: Staphylococcus aureus ATCC6538; format: cell-based; conditions: for Minimal inhibitory concentration (MIC) S. aureus ATCC6538: ATCC6538, 24 h; for Minimal bactericidal concentration (MBC) S. aureus ATCC6538: value in bracket, 24 h at 37° C.
Method: as §1, §2

[5] = test system: Pseudomonas aeruginosa ATCC9027; format: cell-based; conditions: for Minimal inhibitory concentration (MIC) P. aeruginosa ATCC9027: ATCC9027, 24 h; for Minimal bactericidal concentration (MBC) P. aeruginosa ATCC9027: value in bracket, 24 h at 37° C.
Method: as §1, §2

[6] = test system: Bacillus subtilis ATCC6633; format: cell-based; conditions: for Minimal inhibitory concentration (MIC) B. subtilis ATCC6633: ATCC6633, 24 h; for Minimal bactericidal concentration (MBC) B. subtilis ATCC6633: value in bracket, 24 h at 37° C.
Method: as §1, §2

[7] = test system: Candida albicans ATCC10231; format: cell-based; conditions: for Minimal inhibitory concentration (MIC) C. albicans ATCC10231: ATCC10231, 48 h; for Minimal bactericidal concentration (MBC) C. albicans ATCC10231: value in bracket, 48 h at 25° C.
Method: as §1, §2

Row | Minimal inhibitory concentration (MIC) E. faecalis ATCC29121 [2] | Minimal inhibitory concentration (MIC) E. coli ATCC8739 [3] | Minimal inhibitory concentration (MIC) S. aureus ATCC6538 [4] | Minimal inhibitory concentration (MIC) P. aeruginosa ATCC9027 [5] | Minimal inhibitory concentration (MIC) B. subtilis ATCC6633 [6] | Minimal inhibitory concentration (MIC) C. albicans ATCC10231 [7] | Compound | HC50 at 1 h [1] | Minimal bactericidal concentration (MBC) E. faecalis ATCC29121 [2] | Minimal bactericidal concentration (MBC) E. coli ATCC8739 [3] | Minimal bactericidal concentration (MBC) S. aureus ATCC6538 [4] | Minimal bactericidal concentration (MBC) P. aeruginosa ATCC9027 [5] | Minimal bactericidal concentration (MBC) B. subtilis ATCC6633 [6] | Minimal bactericidal concentration (MBC) C. albicans ATCC10231 [7]
1 | >150 µM | >150 µM | >150 µM | >150 µM | >150 µM | >150 µM | CC(=O)N[C@@H](CCCCN)c1nc(C)sc1C(=O)N[C@@H](C)c1nc(CCCCN)sc1C(=O)N[C@@H](C)c1nc(C)sc1C(N)=O [Oligomer 1] | > 100 µM | – | – | – | – | – | –
2 | >150 µM | >150 µM | >150 µM | >150 µM | 30 µM (≈ 38.9 µg/mL) | 62.5 µM (≈ 81 µg/mL) | CC(=O)N[C@@H](CCCCN)c1nc(C)sc1C(=O)N[C@@H](C)c1nc(CCCCN)sc1C(=O)N[C@@H](C)c1nc(C)sc1C(=O)N[C@@H](CCCCN)c1nc(C)sc1C(=O)N[C@@H](C)c1nc(CCCCN)sc1C(=O)N[C@@H](C)c1nc(C)sc1C(N)=O [Oligomer 2] | > 100 µM | – | – | – | – | – | –
3 | >150 µM | 5.2 µM (≈ 9.96 µg/mL) | >150 µM | 42 µM (≈ 80.5 µg/mL) | 0.8 µM (≈ 1.53 µg/mL) | 10.4 µM (≈ 19.9 µg/mL) | CC(=O)N[C@@H](CCCCN)c1nc(C)sc1C(=O)N[C@@H](C)c1nc(CCCCN)sc1C(=O)N[C@@H](C)c1nc(C)sc1C(=O)N[C@@H](CCCCN)c1nc(C)sc1C(=O)N[C@@H](C)c1nc(CCCCN)sc1C(=O)N[C@@H](C)c1nc(C)sc1C(=O)N[C@@H](CCCCN)c1nc(C)sc1C(=O)N[C@@H](C)c1nc(CCCCN)sc1C(=O)N[C@@H](C)c1nc(C)sc1C(N)=O [Oligomer 3] | > 100 µM | (>150) μM | (7.3) μM | (>150) μM | (83) μM | (0.8) μM | (10.4) μM
4 | >150 µM | 1.6 µM (≈ 4.06 µg/mL) | 26 µM (≈ 65.9 µg/mL) | 3.9 µM (≈ 9.88 µg/mL) | 0.5 µM (≈ 1.27 µg/mL) | 3.7 µM (≈ 9.38 µg/mL) | CC(=O)N[C@@H](CCCCN)c1nc(C)sc1C(=O)N[C@@H](C)c1nc(CCCCN)sc1C(=O)N[C@@H](C)c1nc(C)sc1C(=O)N[C@@H](CCCCN)c1nc(C)sc1C(=O)N[C@@H](C)c1nc(CCCCN)sc1C(=O)N[C@@H](C)c1nc(C)sc1C(=O)N[C@@H](CCCCN)c1nc(C)sc1C(=O)N[C@@H](C)c1nc(CCCCN)sc1C(=O)N[C@@H](C)c1nc(C)sc1C(=O)N[C@@H](CCCCN)c1nc(C)sc1C(=O)N[C@@H](C)c1nc(CCCCN)sc1C(=O)N[C@@H](C)c1nc(C)sc1C(N)=O [Oligomer 4] | > 100 µM | (>150) μM | (1.6) μM | (57) μM | (5.2) μM | (0.5) μM | (3.7) μM
5 | 6.2 µM (≈ 13.4 µg/mL) | 8.3 µM (≈ 18 µg/mL) | 5.2 µM (≈ 11.3 µg/mL) | 6.2 µM (≈ 13.4 µg/mL) | 1.3 µM (≈ 2.82 µg/mL) | 6.2 µM (≈ 13.4 µg/mL) | CC(=O)N[C@@H](CCCCN)c1nc(C)sc1C(=O)N[C@@H](CC(C)C)c1nc(CCCCN)sc1C(=O)N[C@@H](C)c1nc(CC(C)C)sc1C(=O)N[C@@H](CCCCN)c1nc(C)sc1C(=O)N[C@@H](CC(C)C)c1nc(CCCCN)sc1C(=O)N[C@@H](C)c1nc(CC(C)C)sc1C(=O)N[C@@H](CCCCN)c1nc(C)sc1C(=O)N[C@@H](CC(C)C)c1nc(CCCCN)sc1C(=O)N[C@@H](C)c1nc(CC(C)C)sc1C(N)=O [Oligomer 6] | 23 µM | (6.2) μM | (8.3) μM | (5.2) μM | (6.2) μM | – | (6.2) μM
6 | 10.4 µM (≈ 29.9 µg/mL) | 14.6 µM (≈ 41.9 µg/mL) | 16.7 µM (≈ 47.9 µg/mL) | 14.6 µM (≈ 41.9 µg/mL) | 4.2 µM (≈ 12.1 µg/mL) | 25 µM (≈ 71.8 µg/mL) | CC(=O)N[C@@H](CCCCN)c1nc(C)sc1C(=O)N[C@@H](CC(C)C)c1nc(CCCCN)sc1C(=O)N[C@@H](C)c1nc(CC(C)C)sc1C(=O)N[C@@H](CCCCN)c1nc(C)sc1C(=O)N[C@@H](CC(C)C)c1nc(CCCCN)sc1C(=O)N[C@@H](C)c1nc(CC(C)C)sc1C(=O)N[C@@H](CCCCN)c1nc(C)sc1C(=O)N[C@@H](CC(C)C)c1nc(CCCCN)sc1C(=O)N[C@@H](C)c1nc(CC(C)C)sc1C(=O)N[C@@H](CCCCN)c1nc(C)sc1C(=O)N[C@@H](CC(C)C)c1nc(CCCCN)sc1C(=O)N[C@@H](C)c1nc(CC(C)C)sc1C(N)=O [Oligomer 7] | > 100 µM | (12.5) μM | (16.5) μM | (25) μM | (19) μM | (6.2) μM | (25) μM
7 | 100 µM (≈ 208 µg/mL) | 0.8 µM (≈ 1.67 µg/mL) | 14.6 µM (≈ 30.4 µg/mL) | 54 µM (≈ 113 µg/mL) | 0.5 µM (≈ 1.04 µg/mL) | 9.4 µM (≈ 19.6 µg/mL) | CC(=O)N[C@@H](CCCNC(=N)N)c1nc(C)sc1C(=O)N[C@@H](C)c1nc(CCCNC(=N)N)sc1C(=O)N[C@@H](C)c1nc(C)sc1C(=O)N[C@@H](CCCNC(=N)N)c1nc(C)sc1C(=O)N[C@@H](C)c1nc(CCCNC(=N)N)sc1C(=O)N[C@@H](C)c1nc(C)sc1C(=O)N[C@@H](CCCNC(=N)N)c1nc(C)sc1C(=O)N[C@@H](C)c1nc(CCCNC(=N)N)sc1C(=O)N[C@@H](C)c1nc(C)sc1C(N)=O [Oligomer 8] | > 100 µM | (>100) μM | (0.8) μM | (16.5) μM | (100) μM | (0.5) μM | (12.5) μM
